{"source": "ChEMBL document CHEMBL1201862", "about": "“PubChem BioAssay data set” (2004)", "assay_in_all_cases": "DTP human tumour cell line panel, 48 h", "key": {"BT-549": {"system": "BT-549"}, "EKVX": {"system": "EKVX"}, "HCT-116": {"system": "HCT-116"}, "HCT-15": {"system": "HCT-15"}, "HT-29": {"system": "HT-29"}, "Hs-578T": {"system": "Hs-578T"}, "K562": {"system": "K562"}, "KM12": {"system": "KM12"}, "LOX IMVI": {"system": "LOX IMVI"}, "MDA-MB-231": {"system": "MDA-MB-231"}, "NCI-H226": {"system": "NCI-H226"}, "NCI-H522": {"system": "NCI-H522"}, "OVCAR-3": {"system": "OVCAR-3"}, "OVCAR-5": {"system": "OVCAR-5"}, "RPMI-8226": {"system": "RPMI-8226"}, "RXF 393": {"system": "RXF 393"}, "SK-OV-3": {"system": "SK-OV-3"}, "SN12C": {"system": "SN12C"}, "HOP-92": {"system": "HOP-92"}, "UACC-62": {"system": "UACC-62"}}, "note": "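Growth conditions: 96-well plates. Treatment: test compound, 48 hours, 5 concentrations. Analysis: linear interpolation between bracketing concentrations; unreached endpoints set to highest concentration. GI50: concentration for 50% inhibition of growth.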 Active and inactive are the calls of the source. No stated cut-off is given here; in the data, active = GI50 up to about 1.1 µM and inactive = higher."}
{"compound": "CCCNC(=O)CCC(C)C1CCC2C3C(C[C@H](OC(C)=O)[C@]12C)[C@@]1(C)CCC2(C[C@H]1C[C@H]3OC(C)=O)OOC1(CC[C@]3(C)C4C[C@H](OC(C)=O)[C@]5(C)C(C(C)CCC(=O)NCCC)CCC5C4[C@H](OC(C)=O)C[C@@H]3C1)OO2", "note": "(stereo not given in full)", "values": [{"measurement": "GI50", "setting": "BT-549", "result": "> 100 µM (inactive)"}, {"measurement": "GI50", "setting": "EKVX", "result": "57 µM (inactive)"}, {"measurement": "GI50", "setting": "HCT-116", "result": "> 100 µM (inactive)"}, {"measurement": "GI50", "setting": "HCT-15", "result": "> 100", "unit": "µM"}, {"measurement": "GI50", "setting": "HT-29", "result": "> 100 µM (inactive)"}, {"measurement": "GI50", "setting": "Hs-578T", "result": "19 µM (inactive)"}, {"measurement": "GI50", "setting": "K562", "result": "> 100 µM (inactive)"}, {"measurement": "GI50", "setting": "KM12", "result": "> 100 µM (inactive)"}, {"measurement": "GI50", "setting": "LOX IMVI", "result": "> 100 µM (inactive)"}, {"measurement": "GI50", "setting": "MDA-MB-231", "result": "11.3 µM (inactive)"}, {"measurement": "GI50", "setting": "NCI-H226", "result": "20.8 µM (inactive)"}, {"measurement": "GI50", "setting": "NCI-H522", "result": "> 100 µM (inactive)"}, {"measurement": "GI50", "setting": "OVCAR-3", "result": "> 100 µM (inactive)"}, {"measurement": "GI50", "setting": "OVCAR-5", "result": "46.5 µM (inactive)"}, {"measurement": "GI50", "setting": "RPMI-8226", "result": "> 100 µM (inactive)"}, {"measurement": "GI50", "setting": "RXF 393", "result": "> 100 µM (inactive)"}, {"measurement": "GI50", "setting": "SK-OV-3", "result": "55.5 µM (inactive)"}, {"measurement": "GI50", "setting": "SN12C", "result": "> 100 µM (inactive)"}]}
{"compound": "c1ccc(N/N=C2\\CC(c3ccccc3)Oc3ccccc32)cc1", "note": "(stereo not given)", "values": [{"measurement": "GI50", "setting": "BT-549", "result": "39.8 µM (inactive)"}, {"measurement": "GI50", "setting": "EKVX", "result": "21.9 µM (inactive)"}, {"measurement": "GI50", "setting": "HCT-116", "result": "32.1 µM (inactive)"}, {"measurement": "GI50", "setting": "HCT-15", "result": 31, "unit": "µM"}, {"measurement": "GI50", "setting": "HOP-92", "result": "39.1 µM (inactive)"}, {"measurement": "GI50", "setting": "HT-29", "result": "32.4 µM (inactive)"}, {"measurement": "GI50", "setting": "Hs-578T", "result": "36.5 µM (inactive)"}, {"measurement": "GI50", "setting": "K562", "result": "41.9 µM (inactive)"}, {"measurement": "GI50", "setting": "KM12", "result": "32.4 µM (inactive)"}, {"measurement": "GI50", "setting": "LOX IMVI", "result": "34.2 µM (inactive)"}, {"measurement": "GI50", "setting": "MDA-MB-231", "result": "49.3 µM (inactive)"}, {"measurement": "GI50", "setting": "NCI-H226", "result": "> 100 µM (inactive)"}, {"measurement": "GI50", "setting": "NCI-H522", "result": "21.8 µM (inactive)"}, {"measurement": "GI50", "setting": "OVCAR-3", "result": "34.5 µM (inactive)"}, {"measurement": "GI50", "setting": "OVCAR-5", "result": "46.1 µM (inactive)"}, {"measurement": "GI50", "setting": "RXF 393", "result": "31.6 µM (inactive)"}, {"measurement": "GI50", "setting": "SK-OV-3", "result": "> 100 µM (inactive)"}, {"measurement": "GI50", "setting": "SN12C", "result": "36.2 µM (inactive)"}, {"measurement": "GI50", "setting": "UACC-62", "result": "40.6 µM (inactive)"}]}
{"compound": "CCOc1ccc2nc3nc(O)nc(C)c3c(NC(C)(CO)CO)c2c1", "values": [{"measurement": "GI50", "setting": "BT-549", "result": "> 100 µM (inactive)"}, {"measurement": "GI50", "setting": "EKVX", "result": "> 100 µM (inactive)"}, {"measurement": "GI50", "setting": "HCT-116", "result": "> 100 µM (inactive)"}, {"measurement": "GI50", "setting": "HCT-15", "result": "> 100", "unit": "µM"}, {"measurement": "GI50", "setting": "HOP-92", "result": "> 100 µM (inactive)"}, {"measurement": "GI50", "setting": "HT-29", "result": "> 100 µM (inactive)"}, {"measurement": "GI50", "setting": "Hs-578T", "result": "> 100 µM (inactive)"}, {"measurement": "GI50", "setting": "K562", "result": "> 100 µM (inactive)"}, {"measurement": "GI50", "setting": "KM12", "result": "> 100 µM (inactive)"}, {"measurement": "GI50", "setting": "LOX IMVI", "result": "> 100 µM (inactive)"}, {"measurement": "GI50", "setting": "MDA-MB-231", "result": "> 100 µM (inactive)"}, {"measurement": "GI50", "setting": "NCI-H226", "result": "> 100 µM (inactive)"}, {"measurement": "GI50", "setting": "NCI-H522", "result": "> 100 µM (inactive)"}, {"measurement": "GI50", "setting": "OVCAR-3", "result": "> 100 µM (inactive)"}, {"measurement": "GI50", "setting": "OVCAR-5", "result": "> 100 µM (inactive)"}, {"measurement": "GI50", "setting": "RXF 393", "result": "> 100 µM (inactive)"}, {"measurement": "GI50", "setting": "SK-OV-3", "result": "> 100 µM (inactive)"}, {"measurement": "GI50", "setting": "SN12C", "result": "> 100 µM (inactive)"}, {"measurement": "GI50", "setting": "UACC-62", "result": "> 100 µM (inactive)"}]}
{"compound": "[O-][S+](Nc1ccccc1)c1ccc(N2CCOCC2)cc1", "note": "(stereo not given)", "values": [{"measurement": "GI50", "setting": "BT-549", "result": "6.82 µM (inactive)"}, {"measurement": "GI50", "setting": "EKVX", "result": "94.6 µM (inactive)"}, {"measurement": "GI50", "setting": "HCT-116", "result": "21.2 µM (inactive)"}, {"measurement": "GI50", "setting": "HCT-15", "result": 13, "unit": "µM"}, {"measurement": "GI50", "setting": "HT-29", "result": "36.3 µM (inactive)"}, {"measurement": "GI50", "setting": "Hs-578T", "result": "> 100 µM (inactive)"}, {"measurement": "GI50", "setting": "K562", "result": "27.3 µM (inactive)"}, {"measurement": "GI50", "setting": "KM12", "result": "23.6 µM (inactive)"}, {"measurement": "GI50", "setting": "LOX IMVI", "result": "71 µM (inactive)"}, {"measurement": "GI50", "setting": "MDA-MB-231", "result": "86.7 µM (inactive)"}, {"measurement": "GI50", "setting": "NCI-H226", "result": "> 100 µM (inactive)"}, {"measurement": "GI50", "setting": "NCI-H522", "result": "32.8 µM (inactive)"}, {"measurement": "GI50", "setting": "OVCAR-3", "result": "> 100 µM (inactive)"}, {"measurement": "GI50", "setting": "OVCAR-5", "result": "> 10 µM (inactive)"}, {"measurement": "GI50", "setting": "RPMI-8226", "result": "58.7 µM (inactive)"}, {"measurement": "GI50", "setting": "SN12C", "result": "> 100 µM (inactive)"}, {"measurement": "GI50", "setting": "UACC-62", "result": "9.12 µM (inactive)"}]}
{"compound": "CC(OC(=O)C(CC(=O)OC(C)(C)C)NC(=O)OC(C)(C)C)C(=O)OCc1ccccc1", "note": "(stereo not given)", "values": [{"measurement": "GI50", "setting": "BT-549", "result": "> 100 µM (inactive)"}, {"measurement": "GI50", "setting": "EKVX", "result": "> 100 µM (inactive)"}, {"measurement": "GI50", "setting": "HCT-116", "result": "> 100 µM (inactive)"}, {"measurement": "GI50", "setting": "HCT-15", "result": "> 100", "unit": "µM"}, {"measurement": "GI50", "setting": "HT-29", "result": "> 100 µM (inactive)"}, {"measurement": "GI50", "setting": "Hs-578T", "result": "> 100 µM (inactive)"}, {"measurement": "GI50", "setting": "K562", "result": "> 100 µM (inactive)"}, {"measurement": "GI50", "setting": "KM12", "result": "> 100 µM (inactive)"}, {"measurement": "GI50", "setting": "LOX IMVI", "result": "> 100 µM (inactive)"}, {"measurement": "GI50", "setting": "MDA-MB-231", "result": "> 100 µM (inactive)"}, {"measurement": "GI50", "setting": "NCI-H226", "result": "> 100 µM (inactive)"}, {"measurement": "GI50", "setting": "NCI-H522", "result": "> 100 µM (inactive)"}, {"measurement": "GI50", "setting": "OVCAR-3", "result": "> 100 µM (inactive)"}, {"measurement": "GI50", "setting": "OVCAR-5", "result": "> 100 µM (inactive)"}, {"measurement": "GI50", "setting": "RPMI-8226", "result": "> 100 µM (inactive)"}, {"measurement": "GI50", "setting": "RXF 393", "result": "> 100 µM (inactive)"}, {"measurement": "GI50", "setting": "SK-OV-3", "result": "> 100 µM (inactive)"}, {"measurement": "GI50", "setting": "SN12C", "result": "> 100 µM (inactive)"}, {"measurement": "GI50", "setting": "UACC-62", "result": "> 100 µM (inactive)"}]}
{"compound": "CN1CCN(Cc2nc3c(s2)CCc2sccc2-3)CC1", "values": [{"measurement": "GI50", "setting": "BT-549", "result": "> 100 µM (inactive)"}, {"measurement": "GI50", "setting": "EKVX", "result": "> 100 µM (inactive)"}, {"measurement": "GI50", "setting": "HCT-116", "result": "62.5 µM (inactive)"}, {"measurement": "GI50", "setting": "HCT-15", "result": "> 100", "unit": "µM"}, {"measurement": "GI50", "setting": "HT-29", "result": "32.7 µM (inactive)"}, {"measurement": "GI50", "setting": "Hs-578T", "result": "> 100 µM (inactive)"}, {"measurement": "GI50", "setting": "K562", "result": "89.3 µM (inactive)"}, {"measurement": "GI50", "setting": "KM12", "result": "> 100 µM (inactive)"}, {"measurement": "GI50", "setting": "MDA-MB-231", "result": "52.2 µM (inactive)"}, {"measurement": "GI50", "setting": "NCI-H226", "result": "> 100 µM (inactive)"}, {"measurement": "GI50", "setting": "NCI-H522", "result": "> 100 µM (inactive)"}, {"measurement": "GI50", "setting": "OVCAR-3", "result": "> 100 µM (inactive)"}, {"measurement": "GI50", "setting": "OVCAR-5", "result": "> 100 µM (inactive)"}, {"measurement": "GI50", "setting": "RPMI-8226", "result": "> 100 µM (inactive)"}, {"measurement": "GI50", "setting": "RXF 393", "result": "75.5 µM (inactive)"}, {"measurement": "GI50", "setting": "SK-OV-3", "result": "> 100 µM (inactive)"}, {"measurement": "GI50", "setting": "SN12C", "result": "> 100 µM (inactive)"}, {"measurement": "GI50", "setting": "UACC-62", "result": "24.8 µM (inactive)"}]}
